These results are taken from PubChem BioAssay AID651717 (Broad Institute, 2012).

The test system of this experiment is mESC Bmi1-luciferase reporter, firefly/renilla ratio, 24 h. The experiment in a line: compounds raising Bmi1 reporter signal – mouse embryonic stem cells, luciferase, cherry-pick, esBAF inhibitor project, dose response (AID 651717).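 Further: luciferase knocked into Bmi1 locus with EF-1a renilla as cell number control; rising ratio signals esBAF inhibition which derepresses Bmi1.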
Regarding `COC(=O)c1c(-c2ccc(SC)cc2)sc2ccc(OC)cc12`, the AC40 was 0.613 µM.

For the compound `Cc1ccnc(NC(=O)c2ccc3c(c2)C(=O)N(CC(C)C)C3=O)c1`, the AC40 is 2.87 µM.

For `CO[C@H]1CN(C)C(=O)c2cc(NC(=O)NC(C)C)ccc2OC[C@H](C)N(Cc2ccc(-c3ccccn3)cc2)C[C@@H]1C`, the AC40 was 0.871 µM. For `CC(=O)Nc1ccc2c(c1Br)Cc1ccccc1-2`, the AC40 was 2.53 µM.

Consider `Fc1ccccc1NC(=S)N1CCC(c2ccccc2)C1` (centres undefined), for which the AC40 was 0.517 µM.

Consider `Cc1csc(NC(=O)Cc2c(F)cccc2Cl)n1`, for which the AC40 is 8.57 µM. For `COc1ccc(-n2nc(C(=O)NCC(=O)N3CCCC3)c3ccccc3c2=O)cc1Cl`, the AC40 was 20.9 µM. The same measure for `CCCCCCCNC(=O)C1(CC2CC(c3ccccc3)=NO2)CCN(C(=O)OC(C)(C)C)CC1` (centres undefined): 15.4 µM; for `Cc1ccccc1C(=O)c1cccn1CC(=O)NCc1ccccc1Cl`: 9.17 µM.

Consider `O=C(c1ccncc1)N1N=C(c2ccc(Cl)cc2)CC1c1ccccc1O` (centres undefined), for which the AC40 was 2.04 µM.

In the case of `Cc1ccc2c(CN(C)Cc3cccc(F)c3)cc(=O)oc2c1`, the AC40 was 2.23 µM. `Cn1c(C(=O)N/N=C/c2ccccc2)cc2ccccc21`: the AC40 was 2.84 µM. `Cc1cc(F)ccc1-c1cc(C(=O)NC2CCCCC2)[nH]n1`: the AC40 is 9.06 µM. As for `COc1ccc(CNC(=O)Nc2cccc(C)c2)cc1`, the AC40 is 5.8 µM. In the case of `CC(C)Cc1cc(C(=O)Nc2ccc(Br)cc2)no1`, the AC40 is 2.96 µM.

`ClCCn1cnc2c(SCc3ccccc3)ncnc21`: the AC40 is 2.74 µM. In the case of `OC(c1ccccc1)c1nc(-c2ccc3c(c2)OCO3)cs1` (centres undefined), the AC40 is 3.37 µM.

Consider `COc1cccc(Nc2cc(C)c3ccccc3n2)c1`, for which the AC40 is 6.06 µM.

As for `Cc1ccc(Cl)cc1-c1cc(C(=O)Nc2ccc(F)cc2)[nH]n1`, the AC40 was 4.92 µM.

Take `O=C1c2ccccc2C2N1CCCN2C(=O)c1sc2ccccc2c1Cl` (centres undefined): the AC40 is 4.3 µM. As to `O=C(N/N=C/c1ccccc1)c1ccc(NC(=O)c2ccc(F)cc2)cc1`, the AC40 was 1.46 µM. For `O=C1C(=Cc2ccccn2)CCc2ccccc21` the value was 20.1 µM; for `c1ccc(Cn2c(-c3cncs3)nc3ccccc32)cc1`, 11.8 µM; for `COc1cccc(NC(=O)C(=O)NCCC2CCCCN2S(=O)(=O)c2ccccc2)c1` (centres undefined), 2.93 µM. Turning to `COc1ccc(C(=O)CCc2ccccc2O)c(OC)c1`, the AC40 is 3.58 µM. Regarding `Cc1ccc(NC(=O)NC(=O)N(c2ccccc2)S(C)(=O)=O)cc1`, the AC40 was 7.14 µM. `COc1ccccc1CNc1nc2cc(-c3sccc3C)sc2c(=O)n1C`: the AC40 was 6.95 µM. For the compound `COc1ccccc1N1C(=O)S/C(=C\c2ccc(C)s2)C1=O`, the AC40 is 1.95 µM. Consider `O=C(C[C@@H]1CC[C@@H]2[C@H](COC[C@H](O)CN2C(=O)Nc2ccc(Cl)cc2)O1)NCC1CCCCC1`, for which the AC40 was 2.62 µM. `O=C(NC1CCCC1)c1cc(-c2ccccc2O)on1`: the AC40 was 1.65 µM. Regarding `COc1ccc(NC(=O)c2cc(-c3cccs3)on2)cc1`, the AC40 was 3.06 µM. Regarding `CCn1c2ccccc2c2cc(NC(=O)N3CCCCC3)ccc21`, the AC40 was 1.19 µM. As for `Cc1cccc(-c2noc(CCC(=O)N3CCN(c4cc(C)ccc4C)CC3)n2)c1`, the AC40 was 2.82 µM. As for `c1ccc(-c2nnc3oc(-c4cccs4)nn23)cc1`, the AC40 was 5.88 µM.

As to `CC(C)(C)NC(=O)Cn1nnc(-c2ccccc2Cl)n1`, the AC40 was 5.29 µM. On to `COc1cccc(OCc2cc(C(=O)N3CCN(C(C)=O)CC3)no2)c1`, for which the AC40 is 3.15 µM. Consider `COC(=O)c1ccc(CN2C(=O)NC3(CCCCC3)C2=O)cc1`, for which the AC40 is 7.87 µM.

For the compound `O=C(NC1CCCCC1)c1ccc2ccccc2c1O`, the AC40 is 1.27 µM. The same measure for `CC(=O)c1ccc(S(=O)(=O)N(Cc2cc3cc4c(cc3[nH]c2=O)OCCO4)CC2CCCO2)cc1` (centres undefined): 15.2 µM; for `O=C(c1ccc2ccccc2c1)N1CCc2ccccc21`: 8.41 µM; for `CS(=O)(=O)N1CCN(c2nc3ccccc3s2)CC1`: 1.24 µM. On to `COC(=O)c1ccc2[nH]c(C3(O)CCCCC3)c(C)c2c1`, for which the AC40 is 5.55 µM. `O=C(NC1CCCCC1)c1ccc(-c2ccccc2)cc1`: the AC40 is 3.77 µM. Regarding `Cc1nn(Cc2c(F)c(F)c(F)c(F)c2F)c(C)c1NC(=O)c1ccc(COc2cc(Cl)ccc2Cl)cc1`, the AC40 is 3.23 µM. As to `CCc1nnc(NC(=O)c2ccc3c(=O)n4c(nc3c2)CCC4)s1`, the AC40 is 2.51 µM. For the compound `COc1ccccc1C(=O)Nc1sc2c(c1C#N)CCC2`, the AC40 is 2.15 µM. As for `COc1ccc(C(=O)N=c2sc3ccccc3n2C)cc1OC`, the AC40 is 2.13 µM.

In the case of `O=C(Nc1ccc(Oc2cccnc2)cc1)c1ccccc1F`, the AC40 was 12.7 µM. For `CCCCc1nc2cc(C(=O)N3CCCCC3C(=O)OC)ccc2o1` (centres undefined), the AC40 is 13 µM. The same measure for `COc1ccc2oc3cc(Cl)ccc3c(=O)c2c1`: 2.85 µM; for `OCc1c(OCc2cccc(F)c2)ccc2ccccc12`: 7.24 µM. With `O=c1ccc2ccc(OCc3ccccc3)cc2o1`, the AC40 was 3.55 µM. `Cc1csc(NC(=O)Nc2ccc(Cl)cc2)n1`: the AC40 is 2.68 µM. As to `O=C(c1cc2ccccc2oc1=O)N(Cc1cccs1)C1CCS(=O)(=O)C1` (centres undefined), the AC40 was 3.94 µM.

For `c1ccc2cc(C3CCCCC3)ncc2c1`, the AC40 is 4.49 µM. As for `CN(C)c1ccc(C=Cc2nccc3ccccc23)cc1`, the AC40 was 1.65 µM. `CCN(CC)C(=O)c1nc(-c2cccc3ccccc23)no1`: the AC40 was 13.1 µM. For the compound `CC(C)c1ccc(NC(=O)c2ccc3snnc3c2)cc1`, the AC40 is 3.23 µM. Turning to `COc1cc(/C=N/NC(=O)c2nnn(-c3nonc3N)c2C)ccc1OCc1ccc(Cl)cc1`, the AC40 was 19.7 µM. With `COc1cc(C=O)c(Br)cc1OCc1ccc(C)cc1`, the AC40 was 4.67 µM. As for `CC1(C)CNC(=O)c2sc(NC(=O)c3ccccc3)nc2C1`, the AC40 is 4.76 µM. For `COc1ccc(-c2cc3ccccc3s2)cc1[C@H]1[C@H]2C=CC[C@@H](C)[C@@H]2C(=O)N1Cc1ccccc1` the value was 1.53 µM; for `CCN(C(=O)c1cc2c(=O)n3cccc(C)c3nc2s1)C1CCCCC1`, 25.1 µM. As to `Oc1ccccc1C=NN1CCCCCC1`, the AC40 was 1.93 µM. Regarding `COc1cccc(-c2noc(C3CCCN(C(=O)CC(C)(C)C)C3)n2)c1` (centres undefined), the AC40 is 6.48 µM.

`Cc1cc(OCc2cc(C(=O)N(C)C(C)c3ccccn3)no2)cc(C)c1Cl` (centres undefined): the AC40 was 14.7 µM. Take `CC(=O)n1nc(-c2ccccc2)nc1NCc1ccc(N(C)C)cc1`: the AC40 was 3.41 µM. Take `O=C(Nc1cccc(Cl)c1Cl)c1ccc(-c2ccccc2)cc1`: the AC40 is 3.54 µM. With `O=C(NC1CCCCC1)c1cc(-c2cccc(Cl)c2)on1`, the AC40 is 6.04 µM. On to `CC(C)Cn1cnc2c(SCc3ccccc3)nc(N)nc21`, for which the AC40 is 8.9 µM. With `O=C(c1noc2c1CCCC2)N1CCc2ccccc2C1`, the AC40 is 2.99 µM.

Regarding `Cc1cc(C)c(N=Cc2c(O)c3ccccc3oc2=O)c(C)c1`, the AC40 is 7.95 µM. `COC(=O)c1sc(Nc2ccccc2)nc1C`: the AC40 is 4.18 µM.

Consider `CN(Cc1nccn1C)C(=O)c1ccc2nc(Cc3ccccc3F)oc2c1`, for which the AC40 is 5.37 µM. For `COc1ccccc1-c1cnc(C(O)c2ccc(C)cc2)[nH]1` (centres undefined), the AC40 was 10.2 µM. `Oc1cccc(C=NNc2ccccn2)c1`: the AC40 was 5.37 µM.

Take `CC(=O)c1cccc(OCc2cc(C(=O)NCCC3=CCCCC3)no2)c1`: the AC40 is 1.23 µM. With `Cc1ccc(CNC(=O)C2CCC(=O)N(CCc3ccc(Cl)cc3)C2)cc1` (centres undefined), the AC40 was 5.36 µM. For the compound `CCCNC(=O)Nc1ccc2c(c1)C(=O)N(C)C[C@H](OC)[C@@H](C)CN(Cc1ccc(-c3ccccn3)cc1)[C@H](C)CO2`, the AC40 was 1.73 µM. The same measure for `CO[C@H]1CN(C)C(=O)c2cc(NC(=O)Nc3ccc4c(c3)OCO4)ccc2OC[C@@H](C)NC[C@H]1C`: 8.26 µM; for `COc1ccc2nc3sc(C(=O)NCCCN4CCc5ccccc5C4)cc3cc2c1`: 11.9 µM. `c1ccc(-c2ccc3[nH]ccc3c2)cc1`: the AC40 was 3.07 µM.

For `Cc1ccc(OCc2cc(C(=O)N3CCC(c4ccccc4Cl)C3)no2)cc1C` (centres undefined), the AC40 was 7.33 µM. The same measure for `COc1ccc(NC(=O)Nc2cccc(C)n2)cc1`: 3.45 µM; for `COc1ccc(Cc2nc3ccc(C(=O)NCCCSC)cc3o2)cc1OC`: 4.92 µM. For `COc1ccc(NC(=O)Cc2ccccc2)cc1`, the AC40 is 8.22 µM.

On to `Cc1cccc(-c2nc(C#N)c(N3CCCCCC3)o2)c1`, for which the AC40 is 16.7 µM.

As to `O=S(=O)(Nc1cccc(-c2ccc(N3CCCCCC3)nn2)c1)c1ccc(C(F)(F)F)cc1`, the AC40 is 13.1 µM. For the compound `O=C(Cc1ccccc1F)Nc1nc(-c2ccc(F)c(F)c2)cs1`, the AC40 is 9.65 µM. As to `COC(=O)C(Cc1c[nH]c2ccccc12)NC(=O)c1ccc2nc[nH]c2c1` (centres undefined), the AC40 was 14.7 µM. For `COC(=O)c1ccc(COC(=O)CNC(=O)c2ccc(OC)cc2)cc1` the value was 6.87 µM; for `Cc1ccc(C)c(N2CCN(C(=O)CCc3nc(-c4ccccc4C(F)(F)F)no3)CC2)c1`, 4.63 µM; for `CC(C)(O)c1cc2ccc(C#Cc3ccsc3)cc2c(=O)o1`, 3.42 µM. Consider `O=C1N=C(N2CCCCC2)S/C1=C\c1ccccc1F`, for which the AC40 was 2.67 µM.

Regarding `O=C(NNC(=O)c1cccc2ccccc12)c1ccc(Cl)cc1Cl`, the AC40 was 12.7 µM. As to `Cc1ccc(CN2CC(C(=O)Nc3cc(C)ccn3)CC2=O)cc1` (centres undefined), the AC40 is 1.48 µM. Take `CSc1cccc(NC(=O)N2CCc3ccc(NC(=O)c4ccccn4)cc3C2)c1`: the AC40 was 4.23 µM. Consider `COc1ccccc1CNC(=O)C[C@H]1CC[C@@H]2[C@H](COC[C@H](O)CN2C(=O)Nc2ccc(Cl)cc2)O1`, for which the AC40 is 14.1 µM.

With `c1ccc2nc3c(ccc4ccccc43)cc2c1`, the AC40 was 0.939 µM. Take `Nc1nc(-c2ccc(Oc3ccccc3)cc2)cs1`: the AC40 is 7.87 µM. For `CC1CCCN(C(=O)CNC(=O)c2sc3ccccc3c2Cl)C1` (centres undefined) the value was 3.96 µM; for `O=C(CN1CCCCCC1)Nc1ccc(Br)cc1Br`, 8.51 µM. Take `Fc1cccc(Cl)c1/C=N/Nc1ccccn1`: the AC40 is 8.55 µM. For `CCOC(=O)C1=C(CSc2nc(-c3ccccc3)ccc2C#N)OC(N)=C(C#N)C1c1ccccc1` (centres undefined), the AC40 was 12.4 µM.
